The source of these data is ChEMBL document CHEMBL4392870, “Isolation and Biological Activity of 8- Epitetrodotoxin and the Structure of a Possible Biosynthetic Shunt Product of Tetrodotoxin, Cep-226A, from the Newt Cynops ensicauda popei” (J Nat Prod, 2019).

Experiment [1] can be described thus: Inhibition of NaV in mouse Neuro2a cells assessed as suppression of ouabain/veratridine-induced reduction in cell viability measured after 20 hrs by WST8 assay. (Formazan colour is commonly taken as a measure of viable cells.)
A short description of experiment [2]: Inhibition of NaV in mouse Neuro2a cells assessed as suppression of ouabain/veratridine-induced reduction in cell viability measured after 24 hrs by WST8 assay. The class given is cell-based.

Usually EC50 stands for the midpoint of the concentration-response curve. For the compound `NC1=N[C@H](O)[C@H]2[C@H]3O[C@]4(O)O[C@@H]([C@@H](O)[C@@]2(N1)[C@@H]4O)[C@]3(O)CO` [TETRODOTOXIN], the half-maximal effective concentration (EC50) in experiment [1] is 1.9 nM. This compound also returned an ED50 in the experiment filed under Rana temporaria of 4.1 nM.

In the case of `NC1=N[C@H](O)[C@H]2[C@H]3O[C@]4(O)O[C@@H]([C@H](O)[C@@]2(N1)[C@@H]4O)[C@]3(O)CO`, the 50% effective concentration (EC50) in experiment [1] is 110 nM. In the case of `NC1=N[C@H](O)[C@H]2[C@H]3O[C@]4(O)O[C@@H]([C@@H](O)[C@@]2(N1)[C@@H]4O)[C@@]3(O)CO`, the EC50 in experiment [1] amounted to 33 nM. The same compound gave an ED50 in the experiment filed under Rana temporaria of 96 nM. As for `NC1=N[C@H](O)[C@H]2[C@H]3O[C@]4(O)O[C@@H](C[C@@]2(N1)[C@@H]4O)[C@]3(O)CO`, the EC50 in experiment [2] was 250 nM.
